Assay: Inhibition of p37 in Vaccinia virus Copenhagen infected in African green monkey Vero cells assessed as reduction in viral reproduction incubated for 4 days by neutral red dye based colorimetric analysis

SMILES | IC50 [µM]
O=C(NCC12CC3CC(CC(C3)C1)C2)c1ccc(Br)cc1 | 8.3
CC(NNC(=O)c1ccc(C(F)(F)F)cc1)C12CC3CC(CC(C3)C1)C2 (stereo not drawn) | 0.515
O=C(NNC1C2CC3CC(C2)CC1C3)c1ccc(C(F)(F)F)cc1 (stereo not drawn) | 2.8
O=C(NNC(=O)c1ccc(C(F)(F)F)cc1)NC12CC3CC(CC(C3)C1)C2 | 36.3
O=C(NN1C(=O)[C@@H]2[C@@H]3C=C[C@@H]([C@H]4C[C@@H]34)[C@@H]2C1=O)c1ccc(C(F)(F)F)cc1 [Tecovirimat] | 0.0027
CCC12CC3CC(C1)CC(C(=O)NNC(=O)c1ccc(C(F)(F)F)cc1)(C3)C2 | 12.5
O=C(NC1C2CC3CC(C2)CC1C3)c1ccc(Br)cc1 (stereo not drawn) | 3.06
CN(C(=O)c1ccc(C(F)(F)F)cc1)C12CC3CC(CC(C3)C1)C2 | 4.85
CCC12CC3CC(C1)CC(NC(=O)c1ccc(C(F)(F)F)cc1)(C3)C2 | 4.1
O=C(NCC12CC3CC(CC(C3)C1)C2)c1ccc(C(F)(F)F)cc1 | 0.27
O=C(NNC(=O)C12CC3CC(CC(C3)C1)C2)c1ccc(C(F)(F)F)cc1 | 1.07
CC12CC3CC(C)(C1)CC(C(=O)NNC(=O)c1ccc(C(F)(F)F)cc1)(C3)C2 | 30.9
CCC12CC3CC(C1)CC(NNC(=O)c1ccc(C(F)(F)F)cc1)(C3)C2 | 1.66
O=C(NC12CC3CC(CC(C3)C1)C2)c1ccc(C(F)(F)F)cc1 | 0.133
O=C(NNC1C2CC3CC1CC(Cl)(C3)C2)c1ccc(C(F)(F)F)cc1 (stereo not drawn) | 3.52
CC12CC3CC(C1)CC(NC(=O)c1ccc(C(F)(F)F)cc1)(C3)C2 | 8.98
O=C(NC1C2CC3CC(C2)CC1C3)c1ccc(C(F)(F)F)cc1 (stereo not drawn) | 0.216
O=C(NN=C1C2CC3CC(C2)CC1C3)c1ccc(C(F)(F)F)cc1 | 198

Source: BindingDB's records for doi:10.1016/j.ejmech.2021.113485 (Samara State Technical University, 2021)
